Tests used:
[1] = target: DNA-PK(h) (Homo sapiens, UniProt P78527); experiment: Evaluation of inhibitory activity against DNA-PK (HTRF kinase assay, GST-cMyc-p53 substrate); format: biochemical; settings: for inhibition at 0.01 µM: compound concentration 0.01 μM, read-out: EXP_VALUE(% Inhibition) DNA-PK(h) 0.01 μM; for inhibition at 0.1 µM: compound concentration 0.1 μM, read-out: EXP_VALUE(% Inhibition) DNA-PK(h) 0.1 μM
Outline: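 p53 Ser15 phosphorylation by human DNA-PK was measured by time-resolved FRET ratio (665/620 nm ×10000) using Eu-labelled anti-phospho-Ser15 and d2 anti-GST antibodies. Substrate GST-cMyc-p53 at 50 μM; Mg/ATP-initiated, 30 min at room temperature, EDTA stop.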

[2] = target: PI3K-δ (PI3K(p1108/p857) (h)) (Homo sapiens, UniProt O00329); experiment: Evaluation of inhibitory activity against PI3K-δ (HTRF kinase assay); format: biochemical; settings: for inhibition at 0.01 µM: compound concentration 0.01 μM, read-out: EXP_VALUE(% Inhibition) PI3K-δ 0.01 μM; for inhibition at 0.1 µM: compound concentration 0.1 μM, read-out: EXP_VALUE(% Inhibition) PI3K-δ 0.1 μM
Sequence of PI3K-δ (PI3K(p1108/p857) (h)) (O00329 whole entry, the tested form may be a part): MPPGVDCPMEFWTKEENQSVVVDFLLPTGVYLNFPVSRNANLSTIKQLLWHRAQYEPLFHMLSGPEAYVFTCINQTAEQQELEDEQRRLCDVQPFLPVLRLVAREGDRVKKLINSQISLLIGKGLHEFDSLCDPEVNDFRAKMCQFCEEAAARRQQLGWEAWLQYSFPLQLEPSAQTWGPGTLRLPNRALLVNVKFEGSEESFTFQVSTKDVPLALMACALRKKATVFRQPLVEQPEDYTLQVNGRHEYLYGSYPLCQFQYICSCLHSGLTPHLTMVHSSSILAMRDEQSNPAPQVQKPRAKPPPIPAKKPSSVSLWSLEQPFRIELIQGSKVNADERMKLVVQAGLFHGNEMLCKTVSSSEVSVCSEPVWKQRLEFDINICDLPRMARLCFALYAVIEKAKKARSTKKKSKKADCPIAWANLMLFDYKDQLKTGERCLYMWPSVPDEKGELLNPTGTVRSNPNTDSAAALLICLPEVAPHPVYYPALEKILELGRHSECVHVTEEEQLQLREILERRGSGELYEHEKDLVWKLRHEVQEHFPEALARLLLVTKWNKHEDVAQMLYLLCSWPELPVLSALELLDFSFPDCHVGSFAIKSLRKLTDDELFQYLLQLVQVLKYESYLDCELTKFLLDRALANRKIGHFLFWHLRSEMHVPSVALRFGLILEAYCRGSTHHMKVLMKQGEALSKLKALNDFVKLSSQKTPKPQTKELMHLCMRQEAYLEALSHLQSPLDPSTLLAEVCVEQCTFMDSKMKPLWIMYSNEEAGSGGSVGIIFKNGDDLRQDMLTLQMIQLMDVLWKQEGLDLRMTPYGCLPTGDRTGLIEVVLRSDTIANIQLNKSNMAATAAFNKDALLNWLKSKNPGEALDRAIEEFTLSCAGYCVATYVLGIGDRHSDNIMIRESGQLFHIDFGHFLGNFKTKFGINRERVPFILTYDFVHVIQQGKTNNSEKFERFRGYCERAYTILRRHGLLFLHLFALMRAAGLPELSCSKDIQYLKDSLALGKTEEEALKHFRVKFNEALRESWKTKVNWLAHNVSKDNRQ
Sequence of PI3K-δ (PI3K(p1108/p857) (h)) (P27986 whole entry partner, the tested form may be a part): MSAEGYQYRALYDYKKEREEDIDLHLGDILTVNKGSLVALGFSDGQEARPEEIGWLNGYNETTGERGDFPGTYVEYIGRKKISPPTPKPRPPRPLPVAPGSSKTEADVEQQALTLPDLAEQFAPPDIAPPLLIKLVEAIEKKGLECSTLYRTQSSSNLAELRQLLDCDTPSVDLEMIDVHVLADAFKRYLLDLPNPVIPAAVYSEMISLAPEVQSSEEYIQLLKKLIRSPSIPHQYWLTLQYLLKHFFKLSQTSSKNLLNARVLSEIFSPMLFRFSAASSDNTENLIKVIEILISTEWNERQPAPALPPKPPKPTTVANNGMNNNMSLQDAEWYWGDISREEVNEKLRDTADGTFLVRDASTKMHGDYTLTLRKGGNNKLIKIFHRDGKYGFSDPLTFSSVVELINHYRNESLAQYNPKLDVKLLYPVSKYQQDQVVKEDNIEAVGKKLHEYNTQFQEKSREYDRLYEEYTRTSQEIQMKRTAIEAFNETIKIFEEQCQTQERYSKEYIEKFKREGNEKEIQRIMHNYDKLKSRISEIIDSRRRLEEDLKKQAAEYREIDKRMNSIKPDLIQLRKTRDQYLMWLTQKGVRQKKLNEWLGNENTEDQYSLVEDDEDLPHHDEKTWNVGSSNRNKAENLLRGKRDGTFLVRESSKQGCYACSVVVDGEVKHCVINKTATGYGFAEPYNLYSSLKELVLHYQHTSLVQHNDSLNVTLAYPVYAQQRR
Outline: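 HTRF read-out (665/620 nm ratio ×10000) used Eu-labelled anti-GST, GST-tagged GRP1 PH domain and streptavidin-allophycocyanin after EDTA/PIP3 stop.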

Row | inhibition at 0.01 µM [1] [%] | inhibition at 0.1 µM [1] [%] | inhibition at 0.01 µM [2] [%] | inhibition at 0.1 µM [2] [%] | SMILES
1 | 51 | 86 | 93 | 101 | COc1ccc(-c2cccc3c(Cl)c([C@H](C)Nc4ncnc5[nH]ccc(=O)c45)n(-c4ccccc4)c(=O)c23)cc1 [Example 64, (S)-4-((1-(4-chloro-8-(4-methoxyphenyl)-1-oxo-2-phenyl-1,2-dihydroisoquinolin-3-yl)ethyl)amino)pyrido[2,3-d]pyrimidin-5(8H)-one]
2 | 83 | 97 | 85 | 92 | C[C@H](Nc1ncnc2[nH]ccc(=O)c12)c1c(Cl)c2cccc(-c3ccncc3)c2c(=O)n1-c1ccccc1 [Example 134, (S)-4-((1-(4-chloro-1-oxo-2-phenyl-8-(pyridin-4-yl)-1,2-dihydroisoquinolin-3-yl)ethyl)amino)pyrido[2,3-d]pyrimidin-5(8H)-one]
3 | 85 |  | 61 |  | C[C@H](Nc1ncnc2[nH]ccc(=O)c12)c1c(Cl)c2cccc(-c3ccc4cnoc4c3)c2c(=O)n1-c1ccccc1 [Example 24, (S)-4-((1-(8-(benzo[d]isoxazol-6-yl)-4-chloro-1-oxo-2-phenyl-1,2-dihydroisoquinolin-3-yl)ethyl)amino)pyrido[2,3-d]pyrimidin-5(8H)-one]
4 | 23 |  | 44 |  | CCCSc1ccc(-c2cccc3c(Cl)c([C@H](C)Nc4ncnc5[nH]ccc(=O)c45)n(-c4ccccc4)c(=O)c23)cc1 [Example 151, (S)-4-((1-(4-chloro-1-oxo-2-phenyl-8-(4-(propylthio)phenyl)-1,2-dihydroisoquinolin-3-yl)ethyl)amino)pyrido[2,3-d]pyrimidin-5(8H)-one]
5 | 35 | 87 | 84 | 99 | C[C@H](Nc1ncnc2[nH]ccc(=O)c12)c1c(Cl)c2cccc(-c3cccc(Cl)c3)c2c(=O)n1-c1ccccc1 [Example 97, (S)-4-((1-(4-chloro-8-(3-chlorophenyl)-1-oxo-2-phenyl-1,2-dihydroisoquinolin-3-yl)ethyl)amino)pyrido[2,3-d]pyrimidin-5(8H)-one]
6 | 102 |  | 85 |  | COc1ccc(-c2cccc3c(Cl)c([C@H](C)Nc4ncnc5[nH]ccc(=O)c45)n(-c4ccccc4)c(=O)c23)cc1F [Example 191, (S)-4-((1-(4-chloro-8-(3-fluoro-4-methoxyphenyl)-1-oxo-2-phenyl-1,2-dihydroisoquinolin-3-yl)ethyl)amino)pyrido[2,3-d]pyrimidin-5(8H)-one]
7 | 68 |  | 85 |  | CCOc1ccc(-c2cccc3c(Cl)c([C@H](C)Nc4ncnc5[nH]ccc(=O)c45)n(-c4ccccc4)c(=O)c23)cn1 [Example 183, (S)-4-((1-(4-chloro-8-(6-ethoxypyridin-3-yl)-1-oxo-2-phenyl-1,2-dihydroisoquinolin-3-yl)ethyl)amino)pyrido[2,3-d]pyrimidin-5(8H)-one]

Continued, compound first:

Row | SMILES | inhibition at 0.01 µM [1] [%] | inhibition at 0.1 µM [1] [%] | inhibition at 0.01 µM [2] [%] | inhibition at 0.1 µM [2] [%]
8 | C[C@H](Nc1ncnc2[nH]ccc(=O)c12)c1c(Cl)c2cccc(-c3ccc(N4CCOCC4)cc3)c2c(=O)n1-c1ccccc1 [Example 75, (S)-4-((1-(4-chloro-8-(4-morpholinophenyl)-1-oxo-2-phenyl-1,2-dihydroisoquinolin-3-yl)ethyl)amino)pyrido[2,3-d]pyrimidin-5(8H)-one] | 82 | 99 | 79 | 86
9 | CCCNC(=O)c1cccc2c(Cl)c([C@H](C)Nc3ncnc4[nH]ccc(=O)c34)n(-c3ccccc3)c(=O)c12 [Example 275, (S)-4-chloro-1-oxo-3-(1-((5-oxo-5,8-dihydropyrido[2,3-d]pyrimidin-4-yl)amino)ethyl)-2-phenyl-N-propyl-1,2-dihydroisoquinoline-8-carboxamide] | 8 |  | 104 | 
10 | C[C@H](Nc1ncnc2[nH]ccc(=O)c12)c1c(Cl)c2cccc(-c3ccc(-c4ccon4)cc3)c2c(=O)n1-c1ccccc1 [Example 33, (S)-4-((1-(4-chloro-8-(4-(isoxazol-3-yl)phenyl)-1-oxo-2-phenyl-1,2-dihydroisoquinolin-3-yl)ethyl)amino)pyrido[2,3-d]pyrimidin-5(8H)-one] | 48 |  | 92 | 
11 | COc1cc(OC(C)C)cc(-c2cccc3c(Cl)c([C@H](C)Nc4ncnc5[nH]ccc(=O)c45)n(-c4ccccc4)c(=O)c23)c1 [Example 157, (S)-4-((1-(4-chloro-8-(3-isopropoxy-5-methoxyphenyl)-1-oxo-2-phenyl-1,2-dihydroisoquinolin-3-yl)ethyl)amino)pyrido[2,3-d]pyrimidin-5(8H)-one] | 52 |  | 57 | 
12 | C[C@H](Nc1ncnc2[nH]ccc(=O)c12)c1c(Cl)c2cccc(-c3ccc(C4CCN(C)CC4)cc3)c2c(=O)n1-c1ccccc1 [Example 130, (S)-4-((1-(4-chloro-8-(4-(1-methylpiperidin-4-yl)phenyl)-1-oxo-2-phenyl-1,2-dihydroisoquinolin-3-yl)ethyl)amino)pyrido[2,3-d]pyrimidin-5(8H)-one] | 98 | 102 | 85 | 89
13 | Cc1cc(C#N)ccc1-c1cccc2c(Cl)c([C@H](C)Nc3ncnc4[nH]ccc(=O)c34)n(-c3ccccc3)c(=O)c12 [Example 67, (S)-4-(4-chloro-1-oxo-3-(1-((5-oxo-5,8-dihydropyrido[2,3-d]pyrimidin-4-yl)amino)ethyl)-2-phenyl-1,2-dihydroisoquinolin-8-yl)-3-methylbenzonitrile] | 56 | 86 | 82 | 92
14 | Cc1ccc(Oc2cccc3c(Cl)c([C@H](C)Nc4ncnc5[nH]ccc(=O)c45)n(-c4ccccc4)c(=O)c23)cc1 [Example 367, (S)-4-((1-(4-chloro-1-oxo-2-phenyl-8-(p-tolyloxy)-1,2-dihydroisoquinolin-3-yl)ethyl)amino)pyrido[2,3-d]pyrimidin-5(8H)-one] | 21 | 67 | 51 | 93
15 | C[C@H](Nc1ncnc2[nH]ccc(=O)c12)c1c(Cl)c2cccc(-c3ccc(C(C)(C)C)nc3)c2c(=O)n1-c1ccccc1 [Example 34, (S)-4-((1-(8-(6-(tert-butyl)pyridin-3-yl)-4-chloro-1-oxo-2-phenyl-1,2-dihydroisoquinolin-3-yl)ethyl)amino)pyrido[2,3-d]pyrimidin-5(8H)-one] | 56 |  | 74 | 

Source: patent publication US20230072683A1, “PYRIDO-PYRIMIDIN DERIVATIVES AND PHARMACEUTICAL COMPOSITION, FOR USE IN PREVENTING OR TREATING PI3 KINASE RELATED DISEASES, COMPRISING SAME AS ACTIVE INGREDIENT” (BORYUNG PHARMACEUTICAL CO., LTD, priority 2019, published 2023)
